Test system: NCI/ADR-RES complex spheroid viability
Experiment: Anticancer human tumor NCI/ADR-RES cell line growth inhibition;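 also: spheroids exposed to compounds for 7 days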;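 as to viability, T/C: 100% = DMSO vehicle treated spheroids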
Conditions: for IC50: curve of first compound; for viability, T/C: stronger effect = lower value
Summary of the method: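 Multicellular complex spheroids of tumor cells with human endothelial cells (HUVEC) and mesenchymal stem cells; the LSD1 inhibitor iadademstat was combined with standard-of-care or investigational agents. Top concentration at or near clinical Cmax, half-log dilutions; final DMSO ≤0.25%.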

[1] = second compound 0.1 µM, first compound 0.0316 µM
[2] = second compound 0.1 µM, first compound 0.1 µM
[3] = second compound 0.1 µM, first compound 0.316 µM
[4] = second compound 0.1 µM, first compound 1 µM
[5] = second compound 0.316 µM, first compound 0.0316 µM
[6] = second compound 0.316 µM, first compound 0.1 µM
[7] = second compound 0.316 µM, first compound 0.316 µM
[8] = second compound 0.316 µM, first compound 1 µM
[9] = second compound 1 µM, first compound 0.0316 µM
[10] = second compound 1 µM, first compound 0.1 µM
[11] = second compound 1 µM, first compound 0.316 µM
[12] = second compound 1 µM, first compound 1 µM
[13] = second compound 3.16 µM, first compound 0.0316 µM
[14] = second compound 3.16 µM, first compound 0.1 µM
[15] = second compound 3.16 µM, first compound 0.316 µM
[16] = second compound 3.16 µM, first compound 1 µM
[17] = second compound 10 µM, first compound 0.0316 µM
[18] = second compound 10 µM, first compound 0.1 µM
[19] = second compound 10 µM, first compound 0.316 µM
[20] = second compound 10 µM, first compound 1 µM

`CC(C)c1c(-c2ccccc2)nc2c(C#N)c[nH]n2c1=O` + NC1CC1c1ccc(-c2cccc(O)c2)cc1 was tested, and the IC50 (second compound 0.1 µM) was > 10000 nM, the IC50 (second compound 0.316 µM) was > 10000 nM and the IC50 (second compound 1 µM) was > 10000 nM. For the same compound, the IC50 (second compound 3.16 µM) was > 10000 nM, the IC50 (second compound 10 µM) was > 10000 nM and the viability, T/C [1] was 104%. For the same compound, the viability, T/C [2] was 107%, the viability, T/C [3] was 102% and the viability, T/C [4] was 103%. It also gave a viability, T/C (second compound 0.1 µM, first compound 3.16 µM) of 108%, a viability, T/C (second compound 0.1 µM, first compound 10 µM) of 95.3% and a viability, T/C [5] of 113%. For the same compound, the viability, T/C [6] was 106%, the viability, T/C [7] was 104% and the viability, T/C [8] was 102%. It also gave a viability, T/C (second compound 0.316 µM, first compound 3.16 µM) of 109%, a viability, T/C (second compound 0.316 µM, first compound 10 µM) of 98.9% and a viability, T/C [9] of 109%. It also gave a viability, T/C [10] of 101%, a viability, T/C [11] of 106% and a viability, T/C [12] of 106%. For the same compound, the viability, T/C (second compound 1 µM, first compound 3.16 µM) was 100%, the viability, T/C (second compound 1 µM, first compound 10 µM) was 96.5% and the viability, T/C [13] was 106%. For the same compound, the viability, T/C [14] was 108%, the viability, T/C [15] was 106% and the viability, T/C [16] was 107%. For the same compound, the viability, T/C (second compound 3.16 µM, first compound 3.16 µM) was 97.6%, the viability, T/C (second compound 3.16 µM, first compound 10 µM) was 98.9% and the viability, T/C [17] was 87%. For the same compound, the viability, T/C [18] was 96.3%, the viability, T/C [19] was 91.7% and the viability, T/C [20] was 91.2%. It also gave a viability, T/C (second compound 10 µM, first compound 3.16 µM) of 89.2% and a viability, T/C (second compound 10 µM, first compound 10 µM) of 84.2%.
In the case of `CC1COCCN1c1cc(-c2ccnn2C)c2ccnc(-c3ccn[nH]3)c2n1` (stereo not given) + NC1CC1c1ccc(-c2cccc(O)c2)cc1, the IC50 (second compound 0.1 µM) is reported as 11.8 nM, the IC50 (second compound 0.316 µM) is reported as 13.6 nM and the IC50 (second compound 1 µM) is reported as 12.3 nM. For the same compound, the IC50 (second compound 3.16 µM) was 12.6 nM, the IC50 (second compound 10 µM) was 13 nM and the viability, T/C (second compound 0.1 µM, first compound 0.00316 µM) was 94.5%. It also gave a viability, T/C (second compound 0.1 µM, first compound 0.01 µM) of 56.5%, a viability, T/C [1] of 11.9% and a viability, T/C [2] of 2.87%. For the same compound, the viability, T/C [3] was 1.82%, the viability, T/C [4] was 1.99% and the viability, T/C (second compound 0.316 µM, first compound 0.00316 µM) was 93.9%. For the same compound, the viability, T/C (second compound 0.316 µM, first compound 0.01 µM) was 63.8%, the viability, T/C [5] was 11.9% and the viability, T/C [6] was 2.5%. It also gave a viability, T/C [7] of 2.17%, a viability, T/C [8] of 2.31% and a viability, T/C (second compound 1 µM, first compound 0.00316 µM) of 95.2%. It also gave a viability, T/C (second compound 1 µM, first compound 0.01 µM) of 57.5%, a viability, T/C [9] of 16.2% and a viability, T/C [10] of 2.46%. For the same compound, the viability, T/C [11] was 1.61%, the viability, T/C [12] was 1.71% and the viability, T/C (second compound 3.16 µM, first compound 0.00316 µM) was 92.3%. It also gave a viability, T/C (second compound 3.16 µM, first compound 0.01 µM) of 58.4%, a viability, T/C [13] of 16.9% and a viability, T/C [14] of 2.63%. It also gave a viability, T/C [15] of 1.85%, a viability, T/C [16] of 2.16% and a viability, T/C (second compound 10 µM, first compound 0.00316 µM) of 75.9%. The viability, T/C (second compound 10 µM, first compound 0.01 µM) was 58.6%, the viability, T/C [17] was 20.3% and the viability, T/C [18] was 4.64%. The viability, T/C [19] was 2.38% and the viability, T/C [20] was 2.48%.

Reference: PubChem BioAssay AID1918955 (Molecular Pharmacology Branch, DTP, NCI, 2023)
